Measurements reported in patent US10072096B2, “Modified glycoprotein, protein-conjugate and process for the preparation thereof” (SynAffix B.V., priority 2013, dated 2018).

Assay: Stability studies of succinimides 67-69 in PBS with or without glutathione, product ratio by LC-MS
Assay type: physicochemical
Conditions: 37° C.
Experimental: One of succinimide conjugates 67-69 (1 mg) was dissolved in DMF (400 μL) followed by the addition of buffer solution 1, 2 or 3 (800 μL). Buffer solution 1 is PBS, buffer solution 2 is PBS+1 mM glutathione (GSH, reduced) and buffer solution 3 is PBS+1 mM glutathione (oxidized). Final concentration of glutathione (through dilution with DMF) is […]. The samples were incubated at 37° C. and measured in time. Ratio of products was determined by LC-MS.

[1] = 48 h, buffer 2 (PBS+1 mM glutathione, reduced; final 0.71 mM)
[2] = 48 h, buffer 3 (PBS+1 mM glutathione, oxidized; final 0.71 mM)
[3] = 120 h, buffer 2 (PBS+1 mM glutathione, reduced; final 0.71 mM)
[4] = 120 h, buffer 3 (PBS+1 mM glutathione, oxidized; final 0.71 mM)

SMILES: O=C(CCCN1C(=O)CC(SCC(=O)NCc2ccccc2)C1=O)NCCOCCOCCNC(=O)c1ccc2ccc3cccc4ccc1c2c34 (stereo not drawn) [Compound 67]
- Relative ratio: GS adduct (glutathione adduct formed by reverse Michael, then GSH addition) (48 h, buffer 1 (PBS)): 0
- Relative ratio: Hydro pro (hydrolyzed succinimide) (48 h, buffer 1 (PBS)): 43
- Relative ratio: Succinimide (starting succinimide) (48 h, buffer 1 (PBS)): 57
- Relative ratio: GS adduct (glutathione adduct formed by reverse Michael, then GSH addition) [1]: 41
- Relative ratio: Hydro pro (hydrolyzed succinimide) [1]: 18
- Relative ratio: Succinimide (starting succinimide) [1]: 41
- Relative ratio: GS adduct (glutathione adduct formed by reverse Michael, then GSH addition) [2]: 31
- Relative ratio: Hydro pro (hydrolyzed succinimide) [2]: 12
- Relative ratio: Succinimide (starting succinimide) [2]: 57
- Relative ratio: GS adduct (glutathione adduct formed by reverse Michael, then GSH addition) [3]: 52
- Relative ratio: Hydro pro (hydrolyzed succinimide) [3]: 38
- Relative ratio: Succinimide (starting succinimide) [3]: 3
- Relative ratio: GS adduct (glutathione adduct formed by reverse Michael, then GSH addition) [4]: 59
- Relative ratio: Hydro pro (hydrolyzed succinimide) [4]: 28
- Relative ratio: Succinimide (starting succinimide) [4]: 9

SMILES: O=C(CCCN1C(=O)CC(SCCC(=O)NCc2ccccc2)C1=O)NCCOCCOCCNC(=O)c1ccc2ccc3cccc4ccc1c2c34 (stereo not drawn) [Compound 68]
- Relative ratio: GS adduct (glutathione adduct formed by reverse Michael, then GSH addition) (48 h, buffer 1 (PBS)): 0
- Relative ratio: Hydro pro (hydrolyzed succinimide) (48 h, buffer 1 (PBS)): 21
- Relative ratio: Succinimide (starting succinimide) (48 h, buffer 1 (PBS)): 79
- Relative ratio: GS adduct (glutathione adduct formed by reverse Michael, then GSH addition) [1]: 9
- Relative ratio: Hydro pro (hydrolyzed succinimide) [1]: 16
- Relative ratio: Succinimide (starting succinimide) [1]: 75
- Relative ratio: GS adduct (glutathione adduct formed by reverse Michael, then GSH addition) [2]: 7
- Relative ratio: Hydro pro (hydrolyzed succinimide) [2]: 13
- Relative ratio: Succinimide (starting succinimide) [2]: 80
- Relative ratio: GS adduct (glutathione adduct formed by reverse Michael, then GSH addition) (120 h, buffer 1 (PBS)): 0
- Relative ratio: Hydro pro (hydrolyzed succinimide) (120 h, buffer 1 (PBS)): 53
- Relative ratio: Succinimide (starting succinimide) (120 h, buffer 1 (PBS)): 47
- Relative ratio: GS adduct (glutathione adduct formed by reverse Michael, then GSH addition) [3]: 17
- Relative ratio: Hydro pro (hydrolyzed succinimide) [3]: 41
- Relative ratio: Succinimide (starting succinimide) [3]: 42
- Relative ratio: GS adduct (glutathione adduct formed by reverse Michael, then GSH addition) [4]: 16
- Relative ratio: Hydro pro (hydrolyzed succinimide) [4]: 35
- Relative ratio: Succinimide (starting succinimide) [4]: 49

SMILES: O=C(CCCN1C(=O)CC(SCCCC(=O)NCc2ccccc2)C1=O)NCCOCCOCCNC(=O)c1ccc2ccc3cccc4ccc1c2c34 (stereo not drawn) [Compound 69]
- Relative ratio: GS adduct (glutathione adduct formed by reverse Michael, then GSH addition) (48 h, buffer 1 (PBS)): 0
- Relative ratio: Hydro pro (hydrolyzed succinimide) (48 h, buffer 1 (PBS)): 25
- Relative ratio: Succinimide (starting succinimide) (48 h, buffer 1 (PBS)): 75
- Relative ratio: GS adduct (glutathione adduct formed by reverse Michael, then GSH addition) [1]: 6
- Relative ratio: Hydro pro (hydrolyzed succinimide) [1]: 14
- Relative ratio: Succinimide (starting succinimide) [1]: 79
- Relative ratio: GS adduct (glutathione adduct formed by reverse Michael, then GSH addition) [2]: 4
- Relative ratio: Hydro pro (hydrolyzed succinimide) [2]: 11
- Relative ratio: Succinimide (starting succinimide) [2]: 85
- Relative ratio: GS adduct (glutathione adduct formed by reverse Michael, then GSH addition) (120 h, buffer 1 (PBS)): 0
- Relative ratio: Hydro pro (hydrolyzed succinimide) (120 h, buffer 1 (PBS)): 63
- Relative ratio: Succinimide (starting succinimide) (120 h, buffer 1 (PBS)): 37
- Relative ratio: GS adduct (glutathione adduct formed by reverse Michael, then GSH addition) [3]: 12
- Relative ratio: Hydro pro (hydrolyzed succinimide) [3]: 39
- Relative ratio: Succinimide (starting succinimide) [3]: 49
- Relative ratio: GS adduct (glutathione adduct formed by reverse Michael, then GSH addition) [4]: 10
- Relative ratio: Hydro pro (hydrolyzed succinimide) [4]: 33
- Relative ratio: Succinimide (starting succinimide) [4]: 57
